Data set [1] can be described thus: Drug metabolism in PBS buffer assessed as compound hydrolysis. The format is physicochemical.
Data set [2] can be described thus: Drug metabolism in 0.9% NaCl assessed as compound hydrolysis. It counts as physicochemical.
Data set [3] can be described thus: Half life of the compound in water. The format is physicochemical.
Data set [4] can be described thus: Lipophilicity, log D of the compound. The format is physicochemical. As to conditions: octanol/water; call rule not given here.
The subject of data set [5] is Pancreas. Kind of data set: Biodistribution in pancreas of NMRI nude mouse xenografted with human PC3 cells after 120 mins by gamma-counting analysis. It counts as ADME, organism-based, PC-3. As to conditions: in vivo, 2 h. (Xenograft models place foreign cells or tissue in a host animal.)
Data set [6] deals with Blood. In words: Biodistribution in blood of NMRI nude mouse xenografted with human PC3 cells after 120 mins by gamma-counting analysis. As to conditions: in vivo, 2 h. The format is ADME, organism-based, PC-3.
In data set [7] the test system is Spleen. In words: Biodistribution in spleen of NMRI nude mouse xenografted with human PC3 cells after 120 mins by gamma-counting analysis. It counts as ADME, organism-based, PC-3. As to conditions: in vivo, 2 h.
The subject of data set [8] is Mus musculus. In words: Biodistribution in tumor of NMRI nude mouse xenografted with human PC3 cells after 120 mins by gamma-counting analysis. The format is ADME, organism-based, Neoplasm, PC-3. To be noted: in vivo, 2 h.
The subject of data set [9] is Mus musculus. Kind of data set: Biodistribution in gallbladder of NMRI nude mouse xenografted with human PC3 cells after 120 mins by gamma-counting analysis. It counts as ADME, organism-based, Gall bladder, PC-3. To be noted: in vivo, 2 h.
Data set [10] concerns Intestine. Kind of data set: Biodistribution in intestine of NMRI nude mouse xenografted with human PC3 cells after 120 mins by gamma-counting analysis. The format is ADME, organism-based, PC-3. To be noted: in vivo, 2 h.
Data set [11] concerns Liver. In words: Biodistribution in liver of NMRI nude mouse xenografted with human PC3 cells after 120 mins by gamma-counting analysis. It counts as ADME, organism-based, PC-3. As to conditions: in vivo, 2 h.
Data set [12] deals with Kidney. In words: Biodistribution in kidney of NMRI nude mouse xenografted with human PC3 cells after 120 mins by gamma-counting analysis. The format is ADME, organism-based, PC-3. As to conditions: in vivo, 2 h.
Data set [13] in a line: Ratio of biodistribution in tumor to blood of NMRI nude mouse xenografted with human PC3 cells after 120 mins by gamma-counting analysis. To be noted: tumour, 2 h. It counts as ADME, organism-based, PC-3.
For data set [14], the target named is T1, Gastrin-releasing peptide receptor (Homo sapiens, UniProt P30550). In words: Displacement of [125I]-Tyr4-bombesin from GRP receptor in human PC3 cells. The format is cell-based, PC-3.
Data set [15] has as its target T1, Gastrin-releasing peptide receptor. Kind of data set: Displacement of [125I]-Tyr4-bombesin from GRP receptor in human PC3 cells after 1 hr by gamma-counting analysis. It counts as cell-based, PC-3.
For data set [16] the target is unchanged. Kind of data set: Binding affinity to GRP receptor (unknown origin).

SMILES strings stand for the structures.

We go through ten compounds from ChEMBL document CHEMBL2429805, “Studies toward the development of new silicon-containing building blocks for the direct (18)F-labeling of peptides” (J Med Chem, 2013).

T1 sequence (P30550 whole entry): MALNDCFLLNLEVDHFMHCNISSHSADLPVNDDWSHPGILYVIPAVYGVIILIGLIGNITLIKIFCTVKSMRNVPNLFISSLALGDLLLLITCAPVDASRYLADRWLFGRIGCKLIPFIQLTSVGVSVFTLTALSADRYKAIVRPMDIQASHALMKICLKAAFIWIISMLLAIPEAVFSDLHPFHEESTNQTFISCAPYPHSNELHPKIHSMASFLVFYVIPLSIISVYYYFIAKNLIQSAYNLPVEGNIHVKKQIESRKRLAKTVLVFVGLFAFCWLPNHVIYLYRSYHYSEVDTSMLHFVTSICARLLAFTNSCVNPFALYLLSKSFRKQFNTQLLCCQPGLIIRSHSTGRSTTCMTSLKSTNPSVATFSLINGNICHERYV

As for `CC(C)(C)[Si]([18F])(CCn1cc(CC(N)C(=O)O)nn1)C(C)(C)C` (stereo not drawn), the Drug metabolism entry in [1] and in [2] was “Active” each time. The same compound had a half-life in data set [3] of 960 min.
`CC(C)(C)[Si](F)(c1ccc(CC(=O)NCc2ccccc2)cc1)C(C)(C)C`: in data set [3], the half-life was > 18000 min.
As to `CC(C)(C)[Si]([18F])(CCO)C(C)(C)C`, the Drug metabolism result in data set [1] and in data set [2] was “Active” in each case. Moreover, in data set [3], the half-life is 480 min.
In data set [3], `CC(C)(C)[Si](F)(CCn1cc(CC(N)C(=O)O)nn1)C(C)(C)C` (stereo not drawn) gave a half-life of 960 min.
In turn, `CC(C)C[C@H](NC(=O)C[C@H](O)[C@H](CC(C)C)NC(=O)[C@H](Cc1cnc[nH]1)NC(=O)CN(C)C(=O)[C@@H](NC(=O)[C@H](C)NC(=O)[C@H](Cc1c[nH]c2ccccc12)NC(=O)[C@H](CCC(N)=O)NC(=O)CCCCNC(=O)[C@H](CCCNC(=N)N)NC(=O)Cc1ccc([Si]([18F])(C(C)(C)C)C(C)(C)C)cc1)C(C)C)C(N)=O` yielded a logD in data set [4] of 1.3. For the same compound, the Drug uptake came to 4.08 % ID/g in data set [5]; 0.42 % ID/g in data set [6]; 0.46 % ID/g in data set [7]; 0.4 % ID/g in [8]; 146 % ID/g in data set [9]; 16 % ID/g in data set [10]. Also, the Drug uptake in data set [11] was found to be 4.4 % ID/g; in data set [12] it was 1.73 % ID/g. Besides, the Ratio in data set [13] came out at 0.95.
Turning to `CC(C)(C)[Si](F)(CCO)C(C)(C)C`, the half-life in data set [3] is 480 min.
Compound `CSCC[C@H](NC(=O)[C@H](CC(C)C)NC(=O)[C@H](Cc1cnc[nH]1)NC(=O)CNC(=O)[C@@H](NC(=O)[C@H](C)NC(=O)[C@H](Cc1c[nH]c2ccccc12)NC(=O)[C@H](CCC(N)=O)NC(=O)[C@H](CC(N)=O)NC(=O)CNC(=O)[C@H](CC(C)C)NC(=O)[C@H](CCCCNC(=O)c1ccc(F)cc1)NC(=O)[C@H](CCC(N)=O)NC(=O)[C@@H]1CCC(=O)N1)C(C)C)C(N)=O` showed an IC50 in data set [14] of 5.3 nM.
In the case of `CC(C)C[C@H](NC(=O)C[C@H](O)[C@H](CC(C)C)NC(=O)[C@H](Cc1cnc[nH]1)NC(=O)CN(C)C(=O)[C@@H](NC(=O)[C@H](C)NC(=O)[C@H](Cc1c[nH]c2ccccc12)NC(=O)[C@H](CCC(N)=O)NC(=O)CCCCNC(=O)[C@H](CS(=O)(=O)O)NC(=O)[C@H](CS(=O)(=O)O)NC(=O)Cc1ccc([Si](F)(C(C)(C)C)C(C)(C)C)cc1)C(C)C)C(N)=O`, in data set [15], the IC50 amounted to 8.3 nM.
`CC(C)C[C@H](NC(=O)C[C@H](O)[C@H](CC(C)C)NC(=O)[C@H](Cc1cnc[nH]1)NC(=O)CN(C)C(=O)[C@@H](NC(=O)[C@H](C)NC(=O)[C@H](Cc1c[nH]c2ccccc12)NC(=O)[C@H](CCC(N)=O)NC(=O)CCCCNC(=O)[C@H](CCCNC(=N)N)NC(=O)C(O)C(O)C(=O)NCCc1ccc([Si](F)(C(C)(C)C)C(C)(C)C)cc1)C(C)C)C(N)=O` (stereo partly drawn) yielded an IC50 in [15] of 23 nM.
The compound `CC(C)C[C@H](NC(=O)C[C@H](O)[C@H](CC(C)C)NC(=O)[C@H](Cc1cnc[nH]1)NC(=O)CN(C)C(=O)[C@@H](NC(=O)[C@H](C)NC(=O)[C@H](Cc1c[nH]c2ccccc12)NC(=O)[C@H](CCC(N)=O)NC(=O)CCCCNC(=O)[C@H](CCCNC(=N)N)NC(=O)Cc1ccc([Si](F)(C(C)(C)C)C(C)(C)C)cc1)C(C)C)C(N)=O` had an IC50 in [16] of 22.9 nM. That is a double-digit nanomolar value.

What is called half-life is the time in which the quantity being followed falls by half. A high value points to slow loss. For orientation: logD means lipophilicity at a set pH, counting ionised and neutral species. Higher therefore signals a more lipophilic compound. The IC50 is the concentration that gives 50% inhibition.
